Data set [1] has as its target T1, BvHSS (Blastochloris viridis, UniProt O32323, W229E).
T1 construct: gene hss; full length in pETM-14, E. coli BL21(DE3) Gold; dimer, 106 kDa theoretical
Briefly: X-ray crystal structure, […] A. The class given is binding. To be noted: 1.3 mM NAD+ in protein solution; both subunits; PUT soak, no PUT modelled.

The target of data set [2] is T2, BvHSS (Blastochloris viridis, UniProt O32323, E117Q).
T2 construct: gene hss; full length in pETM-14, E. coli BL21(DE3) Gold; dimer, 106 kDa theoretical
As to the kind of experiment: X-ray crystal structure, […] A. It is filed as binding. As to conditions: 1.3 mM NAD+ in protein solution; both subunits; two ribose conformers.

The next data set has as its target T3, PaHSS (Pseudomonas aeruginosa, UniProt Q6X2Y9).
T3 construct: gene CL-17; full length, codon-optimized synthetic gene in pETM-14, E. coli BL21(DE3) Gold; N-terminal 6xHis tag removed with HRV3C protease; 52 kDa monomer in solution (SEC-MALS); crystalline dimers
T3 sequence (Q6X2Y9 1-469): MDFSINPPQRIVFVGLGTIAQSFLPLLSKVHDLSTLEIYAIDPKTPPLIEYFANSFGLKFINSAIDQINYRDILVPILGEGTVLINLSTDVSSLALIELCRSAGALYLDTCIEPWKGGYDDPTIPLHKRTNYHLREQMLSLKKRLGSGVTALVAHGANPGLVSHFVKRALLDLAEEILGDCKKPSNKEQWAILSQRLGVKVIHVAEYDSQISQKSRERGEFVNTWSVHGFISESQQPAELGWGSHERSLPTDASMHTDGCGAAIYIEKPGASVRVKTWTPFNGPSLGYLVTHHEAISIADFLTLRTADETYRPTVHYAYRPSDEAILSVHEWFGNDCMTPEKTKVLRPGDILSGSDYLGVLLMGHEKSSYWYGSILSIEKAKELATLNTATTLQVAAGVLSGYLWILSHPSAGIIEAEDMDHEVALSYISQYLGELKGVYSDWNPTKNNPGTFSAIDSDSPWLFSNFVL
As to the kind of experiment: X-ray crystal structure, […] A. It is filed as binding.

For data set [3], the target named is T4, BvHSS (Blastochloris viridis, UniProt O32323, W229A).
T4 construct: gene hss; full length in pETM-14, E. coli BL21(DE3) Gold; dimer, 106 kDa theoretical
Briefly: X-ray crystal structure, […] A. It is filed as binding. To be noted: 1.3 mM NAD+ in protein solution; both subunits; PUT soak.

The target in data set [4] is T5, BvHSS (Blastochloris viridis, UniProt O32323, E210Q).
T5 construct: gene hss; full length in pETM-14, E. coli BL21(DE3) Gold; dimer, 106 kDa theoretical
As to the kind of experiment: X-ray crystal structure, […] A. The class given is binding. As to conditions: 1.3 mM NAD+ in protein solution; both subunits.

Data set [5] has as its target T6, BvHSS (Blastochloris viridis, UniProt O32323, W229F).
T6 construct: gene hss; full length in pETM-14, E. coli BL21(DE3) Gold; dimer, 106 kDa theoretical
Briefly: X-ray crystal structure, […] A. The class given is binding. To be noted: 1.3 mM NAD+ in protein solution; both subunits; PUT soak, no PUT modelled.

Data set [6] addresses T7, BvHSS (Blastochloris viridis, UniProt O32323, E210A).
T7 construct: gene hss; full length in pETM-14, E. coli BL21(DE3) Gold; dimer, 106 kDa theoretical
As to the kind of experiment: X-ray crystal structure, […] A. It is filed as binding. To be noted: 1.3 mM NAD+ in protein solution; both subunits.

Data set [7] concerns the molecule itself. Briefly: SEC-MALS; HPLC-MALS of the purified proteins in solution; data not shown; method in Supplementary Section S1. (SEC sorts molecules by how far they enter the pores of the column.)
Data set [8] concerns the molecule itself. Briefly: crystal structure; BvHSS variants, hanging-drop vapor diffusion at 291 K, sodium acetate pH 4.6-4.8, PEG 10 000, with NAD+ and agmatine sulfate; space group P22(1)2(1), two molecules in the asymmetric unit.

Residue numbers refer to the chain shown, from its start. In names and notes the source's numbering stands.

T7 sequence (O32323 whole entry E210A): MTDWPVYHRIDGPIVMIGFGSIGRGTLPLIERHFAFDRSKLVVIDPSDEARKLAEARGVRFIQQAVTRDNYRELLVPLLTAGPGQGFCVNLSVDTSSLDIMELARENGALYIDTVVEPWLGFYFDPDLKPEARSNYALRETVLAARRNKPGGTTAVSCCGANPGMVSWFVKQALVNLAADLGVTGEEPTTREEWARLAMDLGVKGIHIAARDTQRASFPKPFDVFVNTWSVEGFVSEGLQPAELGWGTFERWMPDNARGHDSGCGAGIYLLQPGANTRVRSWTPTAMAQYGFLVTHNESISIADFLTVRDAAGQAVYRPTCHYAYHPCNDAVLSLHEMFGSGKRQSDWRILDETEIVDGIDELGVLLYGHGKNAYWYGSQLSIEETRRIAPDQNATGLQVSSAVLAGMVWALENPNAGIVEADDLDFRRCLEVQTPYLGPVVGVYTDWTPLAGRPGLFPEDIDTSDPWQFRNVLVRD
T4 sequence (O32323 whole entry W229A): as the sequence (O32323 whole entry E210A) above, with A210E, W229A counted along it
T5 sequence (O32323 whole entry E210Q): as the sequence (O32323 whole entry E210A) above, with A210Q counted along it
T1 sequence (O32323 whole entry W229E): as the sequence (O32323 whole entry E210A) above, with A210E, W229E counted along it
T6 sequence (O32323 whole entry W229F): as the sequence (O32323 whole entry E210A) above, with A210E, W229F counted along it
T2 sequence (O32323 whole entry E117Q): as the sequence (O32323 whole entry E210A) above, with E117Q, A210E counted along it

For `NC(=O)c1ccc[n+]([C@@H]2O[C@H](COP(=O)(O)OP(=O)(O)OC[C@H]3O[C@@H](n4cnc5c(N)ncnc54)[C@H](O)[C@@H]3O)[C@@H](O)[C@H]2O)c1` [NAD^+, nicotinamide adenine dinucleotide], on BvHSS [1], the “X-ray crystal structure, 2.76 A” value is “with each subunit containing an NAD^+ molecule in the binding pocket”. Further, the “X-ray crystal structure, 1.77 A” value at BvHSS [2] is reported as “with each subunit containing an NAD^+ molecule in the binding pocket”. Also, the “X-ray crystal structure, 2.42 A” value at PaHSS (1.3 mM NAD+ in protein solution, all six chains) is “All six PaHSS molecules contain an NAD^+ molecule in their binding pockets”. On BvHSS [3], the “X-ray crystal structure, 2.00 A” value is given as “with each subunit containing an NAD^+ molecule in the binding pocket”. Moreover, the “X-ray crystal structure, 1.93 A” value at BvHSS [4] was “with each subunit containing an NAD^+ molecule in the binding pocket”. Besides, at BvHSS [5], the “X-ray crystal structure, 2.08 A” value was “with each subunit containing an NAD^+ molecule in the binding pocket”. For the same molecule, the “X-ray crystal structure, 1.75 A” value on BvHSS [6] is “with each subunit containing an NAD^+ molecule in the binding pocket”.

On to `NCCCCN` [PUT, 1,4-diaminobutane], for which the “X-ray crystal structure, 2.42 A” value on PaHSS (PUT not added, assumed co-purified from E. coli, active site of chains A, C and E, NAD+ present) was “molecules A, C and E additionally contain a PUT molecule in the active site”.

B1: Blastochloris viridis homospermidine synthase, wild type (enzyme)
chain: MTDWPVYHRIDGPIVMIGFGSIGRGTLPLIERHFAFDRSKLVVIDPSDEARKLAEARGVRFIQQAVTRDNYRELLVPLLTAGPGQGFCVNLSVDTSSLDIMELARENGALYIDTVVEPWLGFYFDPDLKPEARSNYALRETVLAARRNKPGGTTAVSCCGANPGMVSWFVKQALVNLAADLGVTGEEPTTREEWARLAMDLGVKGIHIAERDTQRASFPKPFDVFVNTWSVEGFVSEGLQPAELGWGTFERWMPDNARGHDSGCGAGIYLLQPGANTRVRSWTPTAMAQYGFLVTHNESISIADFLTVRDAAGQAVYRPTCHYAYHPCNDAVLSLHEMFGSGKRQSDWRILDETEIVDGIDELGVLLYGHGKNAYWYGSQLSIEETRRIAPDQNATGLQVSSAVLAGMVWALENPNAGIVEADDLDFRRCLEVQTPYLGPVVGVYTDWTPLAGRPGLFPEDIDTSDPWQFRNVLVRD
notes: also called BvHSS; wild-type BvHSS; source: E. coli BL21(DE3) Gold, purified (as described previously, Krossa et al., 2016)
Turning to B1, the stoichiometry N (usually a count of units in the complex or per binding partner) in [7] stood at 2.

B2: Blastochloris viridis homospermidine synthase variant E117Q (enzyme)
chain: B1 chain with E117Q
notes: homospermidine synthase of Blastochloris viridis, UniProtKB O32323, single-residue variant made by site-directed mutagenesis of BvHSS pETM-14; Same construct as m2 with one substitution; also called BvHSS (E117Q); BvHSS E117Q; source: E. coli BL21(DE3) Gold, purified (as described previously, Krossa et al., 2016)
As for B2, the binding result in data set [8] is “binds”.

B3: Blastochloris viridis homospermidine synthase variant W229A (enzyme)
chain: B1 chain with W229A
notes: homospermidine synthase of Blastochloris viridis, UniProtKB O32323, single-residue variant made by site-directed mutagenesis of BvHSS pETM-14; Same construct as m2 with one substitution; also called BvHSS (W229A); BvHSS W229A; source: E. coli BL21(DE3) Gold, purified (as described previously, Krossa et al., 2016)
In the case of B3, in data set [8], the binding result is on record as “binds”.

B4: Blastochloris viridis homospermidine synthase variant E210A (enzyme)
chain: B1 chain with E210A
notes: homospermidine synthase of Blastochloris viridis, UniProtKB O32323, single-residue variant made by site-directed mutagenesis of BvHSS pETM-14; Same construct as m2 with one substitution; also called BvHSS (E210A); BvHSS E210A; source: E. coli BL21(DE3) Gold, purified (as described previously, Krossa et al., 2016)
For the molecule B4, in data set [8], the binding result is reported as “binds”.

B5: Blastochloris viridis homospermidine synthase variant E210Q (enzyme)
chain: B1 chain with E210Q
notes: homospermidine synthase of Blastochloris viridis, UniProtKB O32323, single-residue variant made by site-directed mutagenesis of BvHSS pETM-14; Same construct as m2 with one substitution; also called BvHSS (E210Q); BvHSS E210Q; source: E. coli BL21(DE3) Gold, purified (as described previously, Krossa et al., 2016)
B5: the binding result in data set [8] is reported as “binds”.

B6: Blastochloris viridis homospermidine synthase variant W229F (enzyme)
chain: B1 chain with W229F
notes: homospermidine synthase of Blastochloris viridis, UniProtKB O32323, single-residue variant made by site-directed mutagenesis of BvHSS pETM-14; Same construct as m2 with one substitution; also called BvHSS (W229F); BvHSS W229F; source: E. coli BL21(DE3) Gold, purified (as described previously, Krossa et al., 2016)
Regarding B6, the binding result in data set [8] was “binds”.

B7: Blastochloris viridis homospermidine synthase variant W229E (enzyme)
chain: B1 chain with W229E
notes: homospermidine synthase of Blastochloris viridis, UniProtKB O32323, single-residue variant made by site-directed mutagenesis of BvHSS pETM-14; Same construct as m2 with one substitution; also called BvHSS (W229E); BvHSS W229E; source: E. coli BL21(DE3) Gold, purified (as described previously, Krossa et al., 2016)
With B7, the binding result in [8] is given as “binds”.

(Values after paper PMC8489232, “Structural and catalytic characterization of Blastochloris viridis and Pseudomonas aeruginosa homospermidine synthases supports the essential role of cation–π interaction” (Acta Crystallographica. Section D, Structural Biology, 2021).)
